Test results: ChEMBL document CHEMBL3102739, “Synthesis and antiproliferative activity of conformationally restricted 1,2,3-triazole analogues of combretastatins in the sea urchin embryo model and against human cancer cell lines” (Bioorg Med Chem, 2014)

Tests used:
[1] = system: HOP-62; assay: Growth inhibition of human HOP62 cells after 48 hrs by SRB assay; format: functional; details: HOP-62, 48 h
[2] = system: BT-549; assay: Growth inhibition of human BT549 cells after 48 hrs by SRB assay; format: functional; details: BT-549, 48 h
[3] = Growth inhibition of human RXF393 cells after 48 hrs by SRB assay; format: functional; details: RXF 393, 48 h
[4] = system: U-251; assay: Growth inhibition of human U251 cells after 48 hrs by SRB assay; format: functional; details: U-251, 48 h
[5] = system: COLO 205; assay: Growth inhibition of human COLO205 cells after 48 hrs by SRB assay; format: functional; details: COLO 205, 48 h
[6] = system: MDA-MB-231; assay: Growth inhibition of human MDA-MB-231 cells after 48 hrs by SRB assay; format: functional; details: MDA-MB-231, 48 h
[7] = system: K562; assay: Growth inhibition of human K562 cells after 48 hrs by SRB assay; format: functional; details: K562, 48 h
[8] = system: NCI-H226; assay: Growth inhibition of human NCI-H226 cells after 48 hrs by SRB assay; format: functional; details: NCI-H226, 48 h
[9] = Growth inhibition of human HCC2998 cells after 48 hrs by SRB assay; format: functional; details: HCC 2998, 48 h
[10] = system: MOLT-4; assay: Growth inhibition of human MOLT4 cells after 48 hrs by SRB assay; format: functional; details: MOLT-4, 48 h
[11] = system: NCI-H522; assay: Growth inhibition of human NCI-H522 cells after 48 hrs by SRB assay; format: functional; details: NCI-H522, 48 h
[12] = system: SN12C; assay: Growth inhibition of human SN12C cells after 48 hrs by SRB assay; format: functional
[13] = Growth inhibition of human OVCAR4 cells after 48 hrs by SRB assay; format: functional; details: OVCAR-4, 48 h
[14] = Growth inhibition of human UO31 cells after 48 hrs by SRB assay; format: functional; details: UO-31, 48 h
[15] = Growth inhibition of human NCI-ADR-RES cells after 48 hrs by SRB assay; format: functional
[16] = system: SR; assay: Growth inhibition of human SR cells after 48 hrs by SRB assay; format: functional
[17] = system: Paracentrotus lividus; assay: Antimitotic activity against sea urchin embryo free-swimming blastula model assessed as embryo spinning compound treated at 8 to 10 hrs post-fertilization measured after 0.25 to 20 hrs; format: functional, Blastula stage
[18] = system: NCI-H23; assay: Growth inhibition of human NCI-H23 cells after 48 hrs by SRB assay; format: functional; details: NCI-H23, 48 h
[19] = Growth inhibition of human OVCAR5 cells after 48 hrs by SRB assay; format: functional; details: OVCAR-5, 48 h
[20] = system: SW-620; assay: Growth inhibition of human SW620 cells after 48 hrs by SRB assay; format: functional; details: SW-620, 48 h
[21] = system: NCI-H460; assay: Growth inhibition of human NCI-H460 cells after 48 hrs by SRB assay; format: functional; details: NCI-H460, 48 h
[22] = system: DU-145; assay: Growth inhibition of human DU145 cells after 48 hrs by SRB assay; format: functional; details: DU-145, 48 h
[23] = Growth inhibition of human HOP92 cells after 48 hrs by SRB assay; format: functional; details: HOP-92, 48 h
[24] = system: CCRF-CEM; assay: Growth inhibition of human CCRF-CEM cells after 48 hrs by SRB assay; format: functional
[25] = system: HT-29; assay: Growth inhibition of human HT-29 cells after 48 hrs by SRB assay; format: functional; details: HT-29, 48 h
[26] = system: SK-MEL-5; assay: Growth inhibition of human SK-MEL-5 cells after 48 hrs by SRB assay; format: functional; details: SK-MEL-5, 48 h
[27] = system: OVCAR-3; assay: Growth inhibition of human OVCAR3 cells after 48 hrs by SRB assay; format: functional; details: OVCAR-3, 48 h
[28] = Growth inhibition of human SF539 cells after 48 hrs by SRB assay; format: functional; details: SF-539, 48 h
[29] = system: HCT-116; assay: Growth inhibition of human HCT116 cells after 48 hrs by SRB assay; format: functional; details: HCT-116, 48 h
[30] = system: HL-60(TB); assay: Growth inhibition of human HL-60(TB) cells after 48 hrs by SRB assay; format: functional; details: HL-60, 48 h
[31] = system: SK-OV-3; assay: Growth inhibition of human SKOV3 cells after 48 hrs by SRB assay; format: functional; details: SK-OV-3, 48 h
[32] = system: ACHN; assay: Growth inhibition of human ACHN cells after 48 hrs by SRB assay; format: functional
[33] = system: MCF7; assay: Growth inhibition of human MCF7 cells after 48 hrs by SRB assay; format: functional; details: MCF7, 48 h
[34] = system: A549; assay: Growth inhibition of human A549 cells after 48 hrs by SRB assay; format: functional; details: A549, 48 h
[35] = system: MDA-MB-468; assay: Growth inhibition of human MDA-MB-468 cells after 48 hrs by SRB assay; format: functional; details: MDA-MB-468, 48 h
[36] = system: M14; assay: Growth inhibition of human M14 cells after 48 hrs by SRB assay; format: functional; details: M14, 48 h
[37] = system: A498; assay: Growth inhibition of human A498 cells after 48 hrs by SRB assay; format: functional; details: A498, 48 h
[38] = system: NCI-H322M; assay: Growth inhibition of human NCI-H322M cells after 48 hrs by SRB assay; format: functional
[39] = system: IGROV-1; assay: Growth inhibition of human IGROV1 cells after 48 hrs by SRB assay; format: functional; details: IGROV-1, 48 h
[40] = system: RPMI-8226; assay: Growth inhibition of human RPMI8226 cells after 48 hrs by SRB assay; format: functional; details: RPMI-8226, 48 h
[41] = Growth inhibition of human Hs578T cells after 48 hrs by SRB assay; format: functional; details: Hs-578T
[42] = system: PC-3; assay: Growth inhibition of human PC3 cells after 48 hrs by SRB assay; format: functional; details: PC-3, 48 h
[43] = system: SF-268; assay: Growth inhibition of human SF268 cells after 48 hrs by SRB assay; format: functional; details: SF-268, 48 h
[44] = Growth inhibition of human UACC257 cells after 48 hrs by SRB assay; format: functional; details: UACC-257, 48 h
[45] = system: SF-295; assay: Growth inhibition of human SF295 cells after 48 hrs by SRB assay; format: functional; details: SF-295, 48 h
[46] = system: SNB-19; assay: Growth inhibition of human SNB19 cells after 48 hrs by SRB assay; format: functional; details: SNB-19, 48 h
[47] = system: TK-10; assay: Growth inhibition of human TK10 cells after 48 hrs by SRB assay; format: functional; details: TK-10, 48 h
[48] = Growth inhibition of human EKVX cells after 48 hrs by SRB assay; format: functional
[49] = system: T47D; assay: Growth inhibition of human T47D cells after 48 hrs by SRB assay; format: functional
[50] = system: UACC-62; assay: Growth inhibition of human UACC62 cells after 48 hrs by SRB assay; format: functional; details: UACC-62, 48 h
[51] = system: LOX IMVI; assay: Growth inhibition of human LOXIMVI cells after 48 hrs by SRB assay; format: functional
[52] = system: CAKI-1; assay: Growth inhibition of human CAKI-1 cells after 48 hrs by SRB assay; format: functional; details: CAKI-1, 48 h

COc1ccc(-c2nn[nH]c2-c2cc(OC)c(OC)c(OC)c2)cc1
GI50 [1]: < 10 nM
GI50 [2]: < 10 nM
GI50 [3]: < 10 nM
GI50 [4]: < 10 nM
GI50 [5]: 33 nM
GI50 [6]: < 10 nM
GI50 [7]: < 10 nM
GI50 [8]: 51 nM
GI50 [9]: < 10 nM
GI50 [10]: 12 nM
GI50 [11]: < 10 nM
GI50 [12]: < 10 nM
GI50 [13]: < 10 nM
GI50 [14]: 1210 nM
GI50 [15]: < 10 nM
GI50 [16]: < 10 nM
EC [17]: 0.1 µM
GI50 [18]: < 10 nM
GI50 [19]: < 10 nM
GI50 [20]: < 10 nM
GI50 [21]: < 10 nM
GI50 [22]: < 10 nM
GI50 [23]: < 10 nM
GI50 [24]: < 10 nM
GI50 [25]: < 10 nM
GI50 [26]: < 10 nM
GI50 [27]: < 10 nM
GI50 [28]: < 10 nM
GI50 [29]: < 10 nM
GI50 [30]: < 10 nM
GI50 [31]: < 10 nM
GI50 [32]: 15 nM
GI50 [33]: < 10 nM
GI50 [34]: < 10 nM
GI50 [35]: < 10 nM
GI50 [36]: < 10 nM
GI50 [37]: < 10 nM
GI50 [38]: < 10 nM
GI50 [39]: < 10 nM
GI50 [40]: < 10 nM
GI50 [41]: < 10 nM
GI50 [42]: 43 nM
GI50 [43]: 21 nM
GI50 [44]: < 10 nM
GI50 [45]: < 10 nM
GI50 [46]: < 10 nM
GI50 [47]: < 10 nM
GI50 [48]: < 10 nM
GI50 [49]: 2660 nM
GI50 [50]: < 10 nM
GI50 [51]: < 10 nM
GI50 [52]: < 10 nM

COc1ccc(-c2nn[nH]c2-c2cc(OC)c3c(c2OC)OCO3)cc1
GI50 [1]: 899 nM
GI50 [2]: 345 nM
GI50 [3]: 657 nM
GI50 [4]: 362 nM
GI50 [5]: 884 nM
GI50 [6]: 1130 nM
GI50 [7]: 493 nM
GI50 [8]: 15200 nM
GI50 [9]: 1110 nM
GI50 [10]: 529 nM
GI50 [11]: 301 nM
GI50 [12]: 4670 nM
GI50 [13]: 4680 nM
GI50 [14]: 2960 nM
GI50 [15]: 296 nM
GI50 [16]: 304 nM
EC [17]: >5 µM
GI50 [18]: 1000 nM
GI50 [19]: 3630 nM
GI50 [20]: 385 nM
GI50 [21]: 409 nM
GI50 [22]: 1420 nM
GI50 [23]: 500 nM
GI50 [24]: 684 nM
GI50 [25]: 376 nM
GI50 [26]: 343 nM
GI50 [27]: 363 nM
GI50 [28]: 909 nM
GI50 [29]: 353 nM
GI50 [30]: 307 nM
GI50 [31]: 854 nM
GI50 [32]: 6790 nM
GI50 [33]: 352 nM
GI50 [34]: 532 nM
GI50 [35]: 218 nM
GI50 [36]: 341 nM
GI50 [37]: 353 nM
GI50 [38]: 2890 nM
GI50 [39]: 720 nM
GI50 [40]: 816 nM
GI50 [41]: 1350 nM
GI50 [42]: 1930 nM
GI50 [43]: 4020 nM
GI50 [44]: 595 nM
GI50 [45]: 356 nM
GI50 [46]: 1800 nM
GI50 [47]: 6370 nM
GI50 [48]: 2790 nM
GI50 [49]: 716 nM
GI50 [50]: 420 nM
GI50 [51]: 547 nM
GI50 [52]: 762 nM
